Reference: patent US12642776B2, “Anticoccidial composition comprising stilbene-based compound, and use thereof” (CJ CHEILJEDANG CORPORATION, priority 2020, dated 2026)
Marks after values point to notes of the source that are not given here.

Tests used:
[1] = test system: Eimeria tenella protozoan (sporozoite); test: Direct killing effect against Eimeria tenella protozoan (sporozoite), microscopic count of alive sporozoites; details: for concentration showing death rate of 50% or more against the protozoan: tested 16 to 500 ppm
Protocol: In the present example, protozoan (sporozoite) direct killing ability evaluation was conducted against 1 representative Eimeria kind known to be infected in most farms (E. tenella).
A certain amount of oocysts of each coccidial protozoan was put in a tube containing glass beads and pulverized, and then to remove the crushed oocyst cell wall and other debris, internal sporocysts were purified using the percoll density gradient, and washed with PBS solution. A reagent comprising sodium taurocholic acid (Sigma aldrich, USA) and trypsin (Gibco, USA), respectively, was treated to sporocysts of Eimeria tenella for excystation of the internal sporozoites, and they were incubated, and then they were washed with PBS solution once and the protozoa were obtained.
After reacting the pterostilbene, pinostilbene and anticoccidial agents, diclazuril and gallic acid (hereinafter, material) with the protozoan of Eimeria tenella at various concentrations of 16 to 500 ppm, respectively, only alive protozoa (sporozoites) were counted through microscopic observation.

Eimeria tenella = test: In vivo anticoccidial efficacy evaluation in broilers challenge-inoculated with Eimeria tenella; parameters: species or system Ross broilers; key to ACI: ACI out of 200 points; higher = better; ≥160 very excellent; Lesion index / Oocyst index: scale not given here; details: for Survival rate after challenge inoculation (%): Eimeria tenella-infected broilers, 10,000 oocysts oral, up to 8th day after challenge; for Survival rate after challenge inoculation (%) / BWG after challenge inoculation (g/d) / ACI / Lesion score / Oocyst index / Lesion index / Daily weight gain compared to negative control group (RWG, %): feed with salinomycin 60 ppm, resveratrol 125 ppm or pterostilbene 125 ppm; for BWG after challenge inoculation (g/d) / anticoccidial index: Eimeria tenella-infected broilers; for BWG after challenge inoculation (g/d): before challenge to 7th day after; for anticoccidial index: Table 5; for ACI: anticoccidial index by Equation 2, out of 200 points; for Lesion score: appendix lesion, scale 0-4, 8th day after challenge; for anticoccidial efficacy compared with salinomycin: comparison of anticoccidial index with salinomycin treatment group; for Oocyst index: index from oocyst excretion (%) compared to infected negative control group; for Lesion index: lesion score x 10; for Daily weight gain compared to negative control group (RWG, %): relative to non-infected negative control group
Protocol: An in vivo anticoccidial efficacy evaluation test was performed in an animal experiment facility in Gyeongsangnam-do, South Korea. One-day-old female Ross broilers were individually weighed and randomly divided into groups to use in an experiment. Matters and conditions for experimental design were described in Table 2.
A breeding farm was managed according to the Korean poultry breeding management guidelines. Cages and the breeding farm were cleaned and disinfected before starting the test. The temperature of […] and the humidity of 40 to 50% of the breeding farm were maintained, and it was continuously monitored. General feed was fed according to the nutritional requirements of broilers, and the mixing ratio was described in Table 3.
To the general feed (Table 3), each material (salinomycin (CAS No. 53003-10-4), resveratrol (sigma) or pterostilbene (sigma) was added at a concentration described in Table 4 below, respectively, and was self-mixed.
Antibiotics and supplements were not used in general feed and mixed feed, and no anticoccidial agent other than each material was added. Broilers were fed ad libitum throughout the experiment period. After putting 6 1-day-age broilers in cages randomly placed for each of the control group or test group and breeding, general feed was fed for 14 days, and then the mixed feed prepared above was ingested by dividing by control group or test group.
Coccidiosis induction was performed by oral inoculation (challenge inoculation) in an oral tube type of 10,000 oocysts (eggs) with over 90% mature (sporulation) Eimeria tenella per one individual to 21-day-old broilers.
The anticoccidial efficacy by test group designed in Example 1-2 above was shown as an anticoccidial index (ACI), and the anticoccidial index was calculated by Equation 2 below. The ACI score is out of 200 points, and the higher the ACI score, the more excellent the anticoccidial ability, and when it is 120 points or more to less than 140 points, it is determined that it is effective as an anticoccidial material, and when it is 140 points or more to less than 160 points, it is determined that it is excellent as an anticoccidial material, and when it is 160 points or more, it is determined that the anticoccidial effect is very excellent (Luis Miguel De Pablos et al., Anticoccidial activity of maslinic acid against infection with Eimeria tenella in chickens, Parasitol Res, 2010). Anticoccidial index(ACI)=(survival rate after challenge inoculation (%))+(daily weight gain compared to negative control group(RWG, %))−(lesion score×10)−(fecal oocyst excretion amount index) (Equation 2)
1) Survival rate: the number of dead individuals was recorded daily, and post mortem autopsy was performed to determine a cause of mortality, and the number of individuals who died due to causes other than coccidiosis was excluded. The survival rate (%) up to the 8th day after challenge inoculation was used for anticoccidial index calculation. The measured survival rate was described in Table 5 below.
2) Daily weight gain: body weight was measured for each cage before challenge inoculation with a protozoan into an individual and at the 7th day after challenge inoculation, and the difference was divided by the number of days to calculate the daily weight gain (ADG, g/d). ‘Daily weight gain compared to the negative control group (RWG, %)’ which was calculated by dividing the daily weight gain (ADG, average daily gain; g/d) of each experimental group by the weight gain (ADG, g/d) of the non-infected negative control group and multiplying by 100 was used for anticoccidial index calculation. The daily weight gain (ADG, g/d) measured in each control group and test group and the daily weight gain compared to the negative control group (RWG, %) were shown in Table 5 below.
3) Lesion scoring: On the 8th day after challenge inoculation, an autopsy was conducted for 6 broilers per cage, and the intestines were incised and opened. […]

N#CC(c1ccc(Cl)cc1)c1c(Cl)cc(-n2ncc(=O)[nH]c2=O)cc1Cl (stereo not shown) [Diclazuril, diclazuril, reference compound]
Protozoal death rate by material treatment concentration (%) ([1]; 16 ppm): 0%
Protozoal death rate by material treatment concentration (%) ([1]; 32 ppm): 0%
Protozoal death rate by material treatment concentration (%) ([1]; 62 ppm): 0%
Protozoal death rate by material treatment concentration (%) ([1]; 125 ppm): 0%
Protozoal death rate by material treatment concentration (%) ([1]; 250 ppm): 35%
Protozoal death rate by material treatment concentration (%) ([1]; 500 ppm): 44%

O=C(O)c1cc(O)c(O)c(O)c1 [Gallic acid, gallic acid, reference compound]
Protozoal death rate by material treatment concentration (%) ([1]; 16 ppm): 0%
Protozoal death rate by material treatment concentration (%) ([1]; 32 ppm): 0%
Protozoal death rate by material treatment concentration (%) ([1]; 62 ppm): 0%
Protozoal death rate by material treatment concentration (%) ([1]; 125 ppm): 0%
Protozoal death rate by material treatment concentration (%) ([1]; 250 ppm): 26%
Protozoal death rate by material treatment concentration (%) ([1]; 500 ppm): 32%

COc1cc(O)cc(/C=C/c2ccc(O)cc2)c1 [Pinostilbene, 3-Methoxy-4′,5-dihydroxy-trans-stilbene]
Protozoal death rate by material treatment concentration (%) ([1]; 16 ppm): 0%
Protozoal death rate by material treatment concentration (%) ([1]; 32 ppm): 0%
Protozoal death rate by material treatment concentration (%) ([1]; 62 ppm): 0%
Protozoal death rate by material treatment concentration (%) ([1]; 125 ppm): 0%
Protozoal death rate by material treatment concentration (%) ([1]; 250 ppm): 50.5%
Protozoal death rate by material treatment concentration (%) ([1]; 500 ppm): 61.3%
concentration showing death rate of 50% or more against the protozoan [1]: ≥ 250 ppm

COc1cc(/C=C/c2ccc(O)cc2)cc(OC)c1 [Pterostilbene, 3,5-Dimethoxy-4′-hydroxystilbene]
Survival rate after challenge inoculation (%) (Eimeria tenella): 100%
BWG after challenge inoculation (g/d) (Eimeria tenella): 389^bc g/d
anticoccidial index (Eimeria tenella): 151 points
ACI (Eimeria tenella): 151
Lesion score (Eimeria tenella): 2.8^b
anticoccidial efficacy compared with salinomycin (Eimeria tenella): equivalent or superior
Oocyst index (Eimeria tenella): 10
Lesion index (Eimeria tenella): 28
Daily weight gain compared to negative control group (RWG, %) (Eimeria tenella): 89%
Protozoal death rate by material treatment concentration (%) ([1]; 16 ppm): 33.3%
Protozoal death rate by material treatment concentration (%) ([1]; 32 ppm): 63.4%
Protozoal death rate by material treatment concentration (%) ([1]; 62 ppm): 74.2%
Protozoal death rate by material treatment concentration (%) ([1]; 125 ppm): 100%
Protozoal death rate by material treatment concentration (%) ([1]; 250 ppm): 100%
Protozoal death rate by material treatment concentration (%) ([1]; 500 ppm): 100%
concentration showing death rate of 50% or more against the protozoan [1]: ≥ 32 ppm

Oc1ccc(/C=C/c2cc(O)cc(O)c2)cc1 [Resveratrol]
Survival rate after challenge inoculation (%) (Eimeria tenella): 100%
BWG after challenge inoculation (g/d) (Eimeria tenella): 381^bcd g/d
anticoccidial index (Eimeria tenella): 149 points
ACI (Eimeria tenella): 149
Lesion score (Eimeria tenella): 2.95
anticoccidial efficacy compared with salinomycin (Eimeria tenella): equivalent or superior
Oocyst index (Eimeria tenella): 10
Lesion index (Eimeria tenella): 29
Daily weight gain compared to negative control group (RWG, %) (Eimeria tenella): 87%

CC[C@@H](C(=O)[C@@H](C)[C@@H](O)[C@H](C)[C@@H]1O[C@@H]([C@@H](CC)C(=O)O)CC[C@@H]1C)[C@H]1O[C@]2(C=C[C@@H](O)[C@]3(CC[C@@](C)([C@H]4CC[C@](O)(CC)[C@H](C)O4)O3)O2)[C@H](C)C[C@@H]1C [Salinomycin, salinomycin, reference compound]
Survival rate after challenge inoculation (%) (Eimeria tenella): 100%
BWG after challenge inoculation (g/d) (Eimeria tenella): 360^cd g/d
anticoccidial index (Eimeria tenella): 149 points
ACI (Eimeria tenella): 149
Lesion score (Eimeria tenella): 2.3^c
Oocyst index (Eimeria tenella): 10
Lesion index (Eimeria tenella): 23
Daily weight gain compared to negative control group (RWG, %) (Eimeria tenella): 82%
